According to patent US5827837A, “Polyanion anti-inflammatory agents” (priority 1996, dated 1998):

How the values were obtained:
E-selectin (E-COS) = test: PMN adhesion to E-selectin transfected COS cells (E-COS); type: cell-based, human; conditions: 0.5 mM
Experimental: COS-1 cells were transfected as described (Seed, B., et al., Proc. Natl. Acad. Sci., U.S.A., 84:3365, 1987; Aruffo, A., Current Protocols In Molecular Biology, eds. supra, 1992) with pCDM7/pCDM8 expression vectors containing the full-length E-, P- and L-selectin cDNA. Transfected COS-1 cells were seeded on gelatin coated coverslips.

[1] = test system: Human umbilical vein endothelial cells (HUVEC); test: PMN adhesion to TNF-activated endothelial monolayers (HUVEC); type: cell-based; conditions: InsP6 0.5 mM
Experimental: Human umbilical vein endothelial cells (HUVEC, Clonetics Corp., San Diego, Calif.) were grown to confluence with 2.2 cm diameter circles made on glass slides with a grease pencil as previously described (Spertini, O., et al., J. Immunol., 147:2565, 1991), and activated for 6-8 hours at […] with 200 U/ml of human recombinant TNFα (Biogen Res. Corp., Cambridge, Mass.). Human PMN (2×10^6) were allowed to adhere to these endothelial monolayers for 30 min at 4° C. under static (stationary platform; upper panel) and non-static (rotating platform, 64 r.p.m.; lower panel) conditions. To determine adhesion blocking activity, PMN were incubated in 5% FBS in RPMI 1640 alone or containing inositol (0.5 mM), InsP6 (0.5 mM), or anti-L-selectin monoclonal antibody LAM 1.3 (10 μg/ml), for 30 min or ice prior to their addition to activated endothelial monolayers. In some experimental wells, endothelial monolayers were incubated with anti E-selectin monoclonal antibody, H18/7, for 30 min prior to addition of PMN. After washing to remove unbound PMN, cultures were fixed in PBS containing 2.5% glutaraldehyde and adherent PMN were counted microscopically. The data represent the mean ±s.e.m. of three separate experiments. Unblocked PMN adhesion to activated endothelial monolayers under static and non-static conditions ranged from 1800 to 2400 cells/mm^2. […]

O=P(O)(O)O[C@H]1[C@H](OP(=O)(O)O)[C@@H](OP(=O)(O)O)[C@H](OP(=O)(O)O)[C@@H](OP(=O)(O)O)[C@H]1OP(=O)(O)O [InsP6, myo-inositol hexakisphosphate]
PMN adhesion to E-COS (E-selectin (E-COS)): not to E-COS
PMN adhesion to TNF-activated endothelial cells, non-static ([1]; non-static conditions (rotation-induced shear stress, 64 r.p.m.)): blocked the adhesion of PMN
PMN adhesion to TNF-activated endothelial cells, static ([1]; static conditions): little or no effect
